Where only a bound is given, the exact number is not on record here.
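Also: rho kinase enzyme reaction halted with EDTA, phospho- and non-phospho peptide separated for read-out, kinase activity inhibition derived across a dose-response series, DMSO under 2%.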

For the assay, the target named is ROCK2 (Homo sapiens (Human), UniProt O75116).
ROCK2, sequence (O75116 whole entry, species assumed): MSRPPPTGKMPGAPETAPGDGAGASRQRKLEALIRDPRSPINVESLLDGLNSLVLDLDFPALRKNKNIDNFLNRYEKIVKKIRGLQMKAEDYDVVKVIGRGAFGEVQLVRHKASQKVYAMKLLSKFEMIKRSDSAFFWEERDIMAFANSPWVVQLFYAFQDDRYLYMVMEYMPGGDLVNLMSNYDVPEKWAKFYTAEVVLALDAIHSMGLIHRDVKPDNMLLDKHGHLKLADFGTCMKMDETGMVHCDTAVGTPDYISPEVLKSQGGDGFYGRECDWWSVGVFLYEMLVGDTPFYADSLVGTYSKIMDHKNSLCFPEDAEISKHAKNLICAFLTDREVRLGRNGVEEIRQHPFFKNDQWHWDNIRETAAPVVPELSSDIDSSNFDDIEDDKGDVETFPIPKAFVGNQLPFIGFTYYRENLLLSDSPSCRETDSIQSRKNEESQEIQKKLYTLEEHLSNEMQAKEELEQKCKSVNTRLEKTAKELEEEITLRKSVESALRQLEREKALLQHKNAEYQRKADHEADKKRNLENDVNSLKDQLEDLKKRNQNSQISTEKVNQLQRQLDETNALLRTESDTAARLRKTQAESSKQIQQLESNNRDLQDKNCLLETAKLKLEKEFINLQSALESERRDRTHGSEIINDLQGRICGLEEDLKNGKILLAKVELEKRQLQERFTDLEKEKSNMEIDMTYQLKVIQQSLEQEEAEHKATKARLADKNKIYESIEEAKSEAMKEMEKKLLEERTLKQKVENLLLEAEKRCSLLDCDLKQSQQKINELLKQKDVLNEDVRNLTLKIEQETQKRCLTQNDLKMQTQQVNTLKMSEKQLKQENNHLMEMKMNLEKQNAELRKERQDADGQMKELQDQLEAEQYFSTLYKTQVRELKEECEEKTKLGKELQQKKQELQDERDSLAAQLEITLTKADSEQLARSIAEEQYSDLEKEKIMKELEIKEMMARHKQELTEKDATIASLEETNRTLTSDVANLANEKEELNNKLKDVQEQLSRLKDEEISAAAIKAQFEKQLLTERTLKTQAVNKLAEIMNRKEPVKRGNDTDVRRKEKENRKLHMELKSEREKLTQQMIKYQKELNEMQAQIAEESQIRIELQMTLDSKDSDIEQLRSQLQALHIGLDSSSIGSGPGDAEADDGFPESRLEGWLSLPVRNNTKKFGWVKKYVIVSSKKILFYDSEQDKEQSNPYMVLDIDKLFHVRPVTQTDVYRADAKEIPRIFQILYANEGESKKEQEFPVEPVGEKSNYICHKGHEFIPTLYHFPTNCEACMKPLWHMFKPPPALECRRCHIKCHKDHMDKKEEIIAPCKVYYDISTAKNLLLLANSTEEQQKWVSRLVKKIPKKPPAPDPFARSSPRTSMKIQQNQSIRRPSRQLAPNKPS
The IC50 is the point on the concentration scale where inhibition reaches its midpoint. Low values mean inhibition by little substance, high ones a need for much substance. On to `COc1cc(NC2CCN(c3ccc(-c4cn[nH]c4)nc3)C2=O)ccc1F` (single isomer, unassigned) [Example 300, 1-(6-(1H-pyrazol-4-yl)pyridin-3-yl)-3-((4-fluoro-3-methoxyphenyl)amino)pyrrolidin-2-one], for which the IC50 lay within 10 to 100 nM.
Under `COc1cc(F)cc(NC2CCN(c3ccc(-c4cn[nH]c4)cc3Cl)C2=O)c1` (single isomer, unassigned) [Example 169, 1-(2-chloro-4-(1H-pyrazol-4-yl)phenyl)-3 ((3-fluoro-5-methoxyphenyl)amino) pyrrolidin-2-one] stands 100 to 2200 nM.
`COc1cccc(NC2CCN(c3ncc(-c4cn[nH]c4)cc3F)C2=O)c1` (single isomer, unassigned) [Example 358, 1-(3-fluoro-5-(1H-pyrazol-4-yl)pyridin-2-yl)-3-((3-methoxyphenyl)amino) pyrrolidin-2-one] returned an IC50 of 100 to 2200 nM.
With `COc1cccc(NC2CCN(c3ccc(-c4cn[nH]c4)c(C(F)(F)F)c3)C2=O)c1` (single isomer, unassigned) [Example 368, 1-(4-(1H-pyrazol-4-yl)-3-(trifluoromethyl)phenyl)-3-((3-methoxyphenyl)amino) pyrrolidin-2-one], the IC50 was in the range of 100 to 2200 nM.
The figure for `COc1cc(NC2CCN(c3ccc(-c4cn[nH]c4)c(OC(F)F)c3)C2=O)ccc1F` (single isomer, unassigned) [Example 107, 1-[3-(difluoromethoxy)-4-(1H-pyrazol-4-yl)phenyl]-3-[(4-fluoro-3-methoxyphenyl)amino]pyrrolidin-2-one] is 10 to 100 nM; for `COc1cc(N2CCC(Nc3c(F)cccc3OC)C2=O)ccc1-c1cn[nH]c1` (single isomer, unassigned) [Example 136, 3-((2-fluoro-6-methoxyphenyl)amino)-1-(3-methoxy-4-(1H-pyrazol-4-yl)phenyl) pyrrolidin-2-one] it is 10 to 100 nM; for `COc1cc(NC2CCN(c3ccc(-c4cn[nH]c4)c(OC)n3)C2=O)ccc1F` (single isomer, unassigned) [Example 208, 3-((4-fluoro-3-methoxyphenyl)amino)-1-(6-methoxy-5-(1H-pyrazol-4-yl)pyridin-2-yl)pyrrolidin-2-one] it is under 10 nM.
In turn, `COc1cccc(NC2CCN(c3ccc(-c4cn[nH]c4)cc3F)C2=O)c1` (single isomer, unassigned) [Example 329, 1-(2-fluoro-4-(1H-pyrazol-4-yl)phenyl)-3-((3-methoxyphenyl)amino)pyrrolidin-2-one] came in with an IC50 of 10 to 100 nM.
In the case of `COc1cc(NC2CCN(c3ccc(-c4cn[nH]c4)c(OCCN(C)C)c3)C2=O)ccc1F` (racemic) [Example 347, 1-(3-(2-(dimethylamino)ethoxy)-4-(1H-pyrazol-4-yl)phenyl)-3-((4-fluoro-3-methoxyphenyl)amino)pyrrolidin-2-one], the IC50 was 100 to 2200 nM.
The compound `COCc1cc(N2CCC(Nc3ccc(F)c(OC)c3)C2=O)ccc1-c1cn[nH]c1` (single isomer, unassigned) [Example 182, 3-((4-fluoro-3-methoxyphenyl)amino)-1-(3-(methoxymethyl)-4-(1H-pyrazol-4-yl)phenyl)pyrrolidin-2-one] displayed an IC50 of 100 to 2200 nM.
`Cc1nc(N2CCC(Nc3cccc(OCC4CC4)c3)C2=O)ccc1-c1cn[nH]c1` (single isomer, unassigned) [Example 191, 3-((3-(cyclopropylmethoxy)phenyl)amino)-1-(6-methyl-5-(1H-pyrazol-4-yl)pyridin-2-yl)pyrrolidin-2-one]: the IC50 lay within 10 to 100 nM.
The figure for `COc1ccc(F)c(NC2CCN(c3ccc(-c4cn[nH]c4)c(F)c3)C2=O)c1` (single isomer, unassigned) [Example 335, 1-(3-fluoro-4-(1H-pyrazol-4-yl)phenyl)-3-((2-fluoro-5-methoxyphenyl)amino) pyrrolidin-2-one] is 10 to 100 nM; for `COc1cc(NC2CCN(c3ccc(-c4cn[nH]c4)c(F)c3)C2=O)ccc1F` (single isomer, unassigned) [Example 333, 3-((4-fluoro-3-methoxyphenyl)amino)-1-(3-fluoro-4-(1H-pyrazol-4-yl)phenyl) pyrrolidin-2-one] it is under 10 nM.
The figure for `COc1cccc(NC2CCN(c3ccc(-c4cn[nH]c4)nc3)C2=O)c1` (single isomer, unassigned) [Example 298, 1-(6-(1H-pyrazol-4-yl)pyridin-3-yl)-3-((3-methoxyphenyl)amino)pyrrolidin-2-one] is 10 to 100 nM.
Under `COc1cccc(NC2CCN(c3ccc(-c4cn[nH]c4)c(OC)n3)C2=O)c1` (single isomer, unassigned) [Example 197, 1-(6-methoxy-5-(1H-pyrazol-4-yl)pyridin-2-yl)-3-((3-methoxyphenyl)amino) pyrrolidin-2-one] stands under 10 nM; under `COc1ccc(NC2CCN(c3ccc(-c4cn[nH]c4)cc3)C2=O)cc1F` (single isomer, unassigned) [Example 14, 1-(4-(1H-pyrazol-4-yl)phenyl)-3-((3-fluoro-4-methoxyphenyl)amino)pyrrolidin-2-one], 100 to 2200 nM; under `COc1cc(NC2CCN(c3ccc(-c4cn[nH]c4)cn3)C2=O)ccc1F` (single isomer, unassigned) [Example 84, 1-(5-(1H-pyrazol-4-yl)pyridin-2-yl)-3-((4-fluoro-3-methoxyphenyl)amino)pyrrolidin-2-one], 10 to 100 nM.
`CCc1cc(N2CCC(Nc3cccc(OC)c3)C2=O)ncc1-c1cn[nH]c1` (single isomer, unassigned) [Example 204, 1-(4-ethyl-5-(1H-pyrazol-4-yl)pyridin-2-yl)-3-((3-methoxyphenyl)amino) pyrrolidin-2-one] yielded a concentration for half-maximal inhibition (IC50) of 100 to 2200 nM.
The compound `COc1cc(F)cc(NC2CCN(c3ccc(-c4cn[nH]c4)c(Cl)c3)C2=O)c1` (single isomer, unassigned) [Example 159, 1-(3-chloro-4-(1H-pyrazol-4-yl)phenyl)-3 ((3-fluoro-5-methoxyphenyl)amino) pyrrolidin-2-one] displayed an IC50 of 100 to 2200 nM.
`O=C1C(Nc2ccc3c(c2)OC(F)(F)O3)CCN1c1ccc(-c2cn[nH]c2)cc1` (single isomer, unassigned) [Example 54, 1-(4-(1H-pyrazol-4-yl)phenyl)-3-((2,2-difluorobenzo[d][1,3]dioxol-5-yl)amino)pyrrolidin-2-one]: the IC50 fell in the range of 100 to 2200 nM.
`COc1cc(F)cc(NC2CCN(c3ccc(-c4cn[nH]c4)cc3)C2=O)c1` (single isomer, unassigned) [Example 27, 1-(4-(1H-pyrazol-4-yl)phenyl)-3-((3-fluoro-5-methoxyphenyl)amino)pyrrolidin-2-one] displayed an IC50 of under 10 nM.
In turn, `COc1cccc(NC2CCN(c3cc(F)c(-c4cn[nH]c4)cc3F)C2=O)c1` (single isomer, unassigned) [Example 354, 1-(2,5-difluoro-4-(1H-pyrazol-4-yl)phenyl)-3-((3-methoxyphenyl)amino)pyrrolidin-2-one] came in with an IC50 of 10 to 100 nM.
Compound `COc1cc(NC2CCN(c3ccc(-c4cn[nH]c4)c(OC)c3)C2=O)cc(OC)c1` (single isomer, unassigned) [Example 140, 3-((3,5-dimethoxyphenyl)amino)-1-(3-methoxy-4-(1H-pyrazol-4-yl)phenyl) pyrrolidin-2-one] registered an IC50 of 100 to 2200 nM.
The compound `COc1ccc(F)c(NC2CCN(c3ccc(-c4cn[nH]c4)cn3)C2=O)c1` (single isomer, unassigned) [Example 304, 1-(5-(1H-pyrazol-4-yl)pyridin-2-yl)-3-((2-fluoro-5-methoxyphenyl)amino)pyrrolidin-2-one] had an IC50 of 10 to 100 nM.
With `CNc1nc(N2CCC(Nc3cccc(OC)c3)C2=O)ccc1-c1cn[nH]c1` (single isomer, unassigned) [Example 254, 3-((3-methoxyphenyl)amino)-1-(6-(methylamino)-5-(1H-pyrazol-4-yl)pyridin-2-yl)pyrrolidin-2-one], the IC50 was 10 to 100 nM.
The figure for `COc1ccc(N[C@@H]2CCN(c3ccc(-c4cn[nH]c4)cc3)C2=O)c(OC)c1` [Example 395, (R)-1-(4-(1H-pyrazol-4-yl)phenyl)-3-((2,4-dimethoxyphenyl)amino)pyrrolidin-2-one] is 100 to 2200 nM; for `CCOc1cc(N2CCC(Nc3ccc(F)c(OC)c3)C2=O)ccc1-c1cn[nH]c1` (single isomer, unassigned) [Example 39, 1-(3-ethoxy-4-(1H-pyrazol-4-yl)phenyl)-3-((4-fluoro-3-methoxyphenyl)amino)pyrrolidin-2-one] it is 10 to 100 nM.
In the case of `COc1cc(NC2CCN(c3ccc(-c4cn[nH]c4)cc3F)C2=O)ccc1F` (single isomer, unassigned) [Example 331, 3-((4-fluoro-3-methoxyphenyl)amino)-1-(2-fluoro-4-(1H-pyrazol-4-yl)phenyl) pyrrolidin-2-one], the IC50 lay in the range of 10 to 100 nM.
With `COc1nc(N2CCC(Nc3cccc(OC(F)F)c3)C2=O)ccc1-c1cn[nH]c1` (single isomer, unassigned) [Example 221, 3-((3-(difluoromethoxy)phenyl)amino)-1-(6-methoxy-5-(1H-pyrazol-4-yl)pyridin-2-yl)pyrrolidin-2-one], the IC50 is under 10 nM.
The figure for `COc1cc(F)cc(NC2CCN(c3ccc(-c4cn[nH]c4)cn3)C2=O)c1` (single isomer, unassigned) [Example 87, 1-(5-(1H-pyrazol-4-yl)pyridin-2-yl)-3-((3-fluoro-5-methoxyphenyl)amino)pyrrolidin-2-one] is 10 to 100 nM; for `COc1ccc(F)c(NC2CCN(c3ccc(-c4cn[nH]c4)cc3)C2=O)c1` (single isomer, unassigned) [Example 240, 1-(4-(1H-pyrazol-4-yl)phenyl)-3-((2-fluoro-5-methoxyphenyl)amino)pyrrolidin-2-one] it is 10 to 100 nM.
As for `COc1cc(F)cc(NC2CCN(c3ccc(-c4cn[nH]c4)cc3F)C2=O)c1` (single isomer, unassigned) [Example 339, 1-(2-fluoro-4-(1H-pyrazol-4-yl)phenyl)-3-((3-fluoro-5-methoxyphenyl)amino) pyrrolidin-2-one], the IC50 was 10 to 100 nM.
Take `O=C1C(Nc2ccccc2)CCN1c1ccc(-c2cn[nH]c2)c(F)c1` (single isomer, unassigned) [Example 44, 1-(3-fluoro-4-(1H-pyrazol-4-yl)phenyl)-3-(phenylamino)pyrrolidin-2-one]: the IC50 was under 10 nM.

For the origin of these results see US10112929B2, “Lactams as inhibitors of rock” (BRISTOL-MYERS SQUIBB COMPANY, priority 2015, dated 2018).
